Laboratory results from patent US9586962B2, “Disubstituted octahydropyrrolo [3,4-C] pyrroles as orexin receptor modulators” (Janssen Pharmaceutica NV, priority 2011, dated 2017).

Target: human orexin 2 receptor (Homo sapiens (Human), UniProt O43614)
Assay: Human orexin 2 receptor Ca2+ mobilization assay (FLIPR, PFSK cells, orexin B 100 nM)
Type: cell-based
Conditions: modified Cheng-Prusoff correction, read-out: OR 2 Kb
Method: Human Orexin 2 Receptor Ca^2+ Mobilization Assay
Cells were seeded on to 96-well Packard viewplates at a density of 50,000 cells/well and incubated overnight at 37° C., 5% CO2. The cells were dye-loaded with 4 μM Ca^2+ dye Fluo-3AM in serum-free DMEM/F-12 with 2.5 mM probenecid and incubated at 37° C., 5% CO2 for one hour. Cells were pre-incubated with compounds (diluted in DMEM/F-12) for 30 minutes before agonist (orexin B, 100 nM) stimulation. Ligand-induced Ca^2+ release was measured using a Fluorometric Imaging Plate Reader (FLIPR, Molecular Devices, Sunnyvale, Calif.). Functional responses were measured as peak fluorescence intensity minus basal. The concentration of agonist that produced a half-maximal response is represented by the EC50 value. Antagonistic potency values were converted to apparent pKB values using a modified Cheng-Prusoff correction. Apparent pKB=−log IC50/1+[conc agonist/EC50]. Data are expressed as mean±S.E.M, the designation of NT means not tested.

Sequence of human orexin 2 receptor (O43614 whole entry): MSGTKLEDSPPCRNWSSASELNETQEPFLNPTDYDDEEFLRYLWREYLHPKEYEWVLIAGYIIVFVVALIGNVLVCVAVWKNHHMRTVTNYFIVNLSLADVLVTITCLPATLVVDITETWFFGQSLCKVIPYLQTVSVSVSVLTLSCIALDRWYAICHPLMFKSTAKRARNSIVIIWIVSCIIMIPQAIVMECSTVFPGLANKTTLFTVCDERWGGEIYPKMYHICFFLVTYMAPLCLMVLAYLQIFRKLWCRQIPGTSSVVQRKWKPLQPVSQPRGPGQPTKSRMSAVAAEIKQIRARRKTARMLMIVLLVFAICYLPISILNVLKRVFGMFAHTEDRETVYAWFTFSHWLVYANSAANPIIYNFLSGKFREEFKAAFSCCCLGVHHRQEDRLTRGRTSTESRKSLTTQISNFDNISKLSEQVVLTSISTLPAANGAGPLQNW

SMILES	Kb [nM]
COc1ccnc(N2CC3CN(C(=O)c4c(C)ccc5ccccc45)CC3C2)n1 (stereo not shown) [Example 49, 2-(4-Methoxypyrimidin-2-yl)-5-[(2-methylnaphthalen-1-yl)carbonyl]octahydro-pyrrolo[3,4-c]pyrrole]	32
COc1cc(OC)nc(N2CC3CN(C(=O)c4cc(C)ccc4-n4nccn4)CC3C2)n1 (stereo not shown) [Example 129, 2-(4,6-Dimethoxypyrimidin-2-yl)-5-{[5-methyl-2-(2H-1,2,3-triazol-2-yl)phenyl]carbonyl}octahydropyrrolo[3,4-c]pyrrole]	100
Cc1ccc(-c2ncccn2)c(C(=O)N2CC3CN(c4cc(C(F)(F)F)nc(N(C)C)n4)CC3C2)c1 (stereo not shown) [Example 108, N,N-Dimethyl-4-{5-[(5-methyl-2-pyrimidin-2-ylphenyl)carbonyl]hexahydropyrrolo[3,4-c]pyrrol-2(1H)-yl}-6-(trifluoromethyl)pyrimidin-2-amine]	25
COc1cc(OC)nc(N2CC3CN(C(=O)c4ccc(F)cc4-n4nccn4)CC3C2)n1 (stereo not shown) [Example 160, 2-(4,6-Dimethoxypyrimidin-2-yl)-5-{[4-fluoro-2-(2H-1,2,3-triazol-2-yl)phenyl]carbonyl}octahydropyrrolo[3,4-c]pyrrole]	20
CN(C)c1nc(N2CC3CN(C(=O)c4ccccc4-n4nccn4)CC3C2)cc(C(F)(F)F)n1 (stereo not shown) [Example 121, N,N-Dimethyl-4-[5-{[2-(2H-1,2,3-triazol-2-yl)phenyl]carbonyl}hexahydropyrrolo[3,4-c]pyrrol-2(1H)-yl]-6-(trifluoromethyl)pyrimidin-2-amine]	13
Cc1cc(N2CC3CN(C(=O)c4ccccc4-c4nnc[nH]4)CC3C2)nc(C(F)(F)F)n1 (stereo not shown) [Example 96, 2-[6-Methyl-2-(trifluoromethyl)pyrimidin-4-yl]-5-{[2-(4H-1,2,4-triazol-3-yl)phenyl]carbonyl}octahydropyrrolo[3,4-c]pyrrole]	50
COc1cc(N2CC3CN(C(=O)c4ccccc4-n4nccn4)CC3C2)nc(N(C)C)n1 (stereo not shown) [Example 5, 4-Methoxy-N,N-dimethyl-6-[5-{[2-(2H-1,2,3-triazol-2-yl)phenyl]carbonyl}hexahydropyrrolo-[3,4-c]pyrrol-2(1H)-yl]pyrimidin-2-amine]	5
COc1ccnc(N2CC3CN(C(=O)c4ccccc4-c4cccs4)CC3C2)n1 (stereo not shown) [Example 45, 2-(4-Methoxypyrimidin-2-yl)-5-[(2-thiophen-2-ylphenyl)carbonyl]octahydro-pyrrolo[3,4-c]pyrrole]	10
Cc1cc(C)nc(N2CC3CN(C(=O)c4ccccc4-c4ccccc4)CC3C2)n1 (stereo not shown) [Example 44, 2-(Biphenyl-2-ylcarbonyl)-5-(4,6-dimethylpyrimidin-2-yl)octahydropyrrolo[3,4-c]pyrrole]	63
Cc1cc(C)nc(N2CC3CN(C(=O)c4c(F)cccc4-c4ncccn4)CC3C2)n1 (stereo not shown) [Example 73, 2-(4,6-Dimethylpyrimidin-2-yl)-5-[(2-fluoro-6-pyrimidin-2-ylphenyl)carbonyl]octahydropyrrolo[3,4-c]pyrrole]	5
CCOc1ccccc1C(=O)N1CC2CN(c3nc(C)cc(C)n3)CC2C1 (stereo not shown) [Example 88, 2-(4,6-Dimethylpyrimidin-2-yl)-5-[(2-ethoxyphenyl)carbonyl]octahydropyrrolo[3,4-c]pyrrole]	25
CN(C)c1nc(N2CC3CN(C(=O)c4cc(F)ccc4-n4nccn4)CC3C2)cc(C(F)(F)F)n1 (stereo not shown) [Example 110, 4-[5-{[5-Fluoro-2-(2H-1,2,3-triazol-2-yl)phenyl]carbonyl}hexahydropyrrolo[3,4-c]pyrrol-2(1H)-yl]-N, N-dimethyl-6-(trifluoromethyl)pyrimidin-2-amine]	32
Cc1cc(N2CC3CN(C(=O)c4cc(F)ccc4-c4ncccn4)CC3C2)nc(C(F)(F)F)n1 (stereo not shown) [Example 204, (5-Fluoro-2-pyrimidin-2-yl-phenyl)-[5-(6-methyl-2-trifluoromethyl-pyrimidin-4-yl)-hexahydro-pyrrolo[3,4-c]pyrrol-2-yl]-methanone]	20
CN(C)c1cc(N2CC3CN(C(=O)c4ccccc4-n4nccn4)CC3C2)nc(C(F)(F)F)n1 (stereo not shown) [Example 2, N,N-Dimethyl-6-[5-{[2-(2H-1,2,3-triazol-2-yl)phenyl]carbonyl}hexahydropyrrolo[3,4-c]pyrrol-2(1H)-yl]-2-(trifluoromethyl)pyrimidin-4-amine]	16
Cc1cc(N2CC3CN(C(=O)c4ccccc4-n4nccn4)CC3C2)nc(N(C)C)n1 (stereo not shown) [Example 120, N,N,4-Trimethyl-6-[5-{[2-(2H-1,2,3-triazol-2-yl)phenyl]carbonyl}hexahydropyrrolo[3,4-c]pyrrol-2(1H)-yl]pyrimidin-2-amine]	13
O=C(c1ccccc1-n1nccn1)N1CC2CN(c3nccc(-c4ccccc4)n3)CC2C1 (stereo not shown) [Example 131, 2-(4-Phenylpyrimidin-2-yl)-5-{[2-(2H-1,2,3-triazol-2-yl)phenyl]carbonyl}octahydro pyrrolo[3,4-c]pyrrole]	79
Cc1cc(N2CC3CN(C(=O)c4ccc(F)cc4-n4nccn4)CC3C2)nc(C(F)(F)F)n1 (stereo not shown) [Example 99, 2-{[4-Fluoro-2-(2H-1,2,3-triazol-2-yl)phenyl]carbonyl}-5-[6-methyl-2-(trifluoromethyl)pyrimidin-4-yl]octahydropyrrolo[3,4-c]pyrrole]	16
Cc1ccc(-n2nccn2)c(C(=O)N2CC3CN(c4nccc(-c5ccccc5)n4)CC3C2)c1 (stereo not shown) [Example 127, 2-{[5-Methyl-2-(2H-1,2,3-triazol-2-yl)phenyl]carbonyl}-5-(4-phenylpyrimidin-2-yl)octahydropyrrolo[3,4-c]pyrrole]	20
Cc1cccc(N2CC3CN(C(=O)c4ccccc4-c4cccs4)CC3C2)n1 (stereo not shown) [Example 134, 2-(6-Methylpyridin-2-yl)-5-[(2-thiophen-2-ylphenyl)carbonyl]octahydropyrrolo[3,4-c]pyrrole]	12

Results, then the compound that gave them:

Kb [nM]	SMILES
3	Cc1nc(N2CC3CN(C(=O)c4ccccc4-c4ncn(C)n4)CC3C2)nc(C)c1C (stereo not shown) [Example 311, 2-{[2-(1-Methyl-1H-1,2,4-triazol-3-yl)phenyl]carbonyl}-5-(4,5,6-trimethylpyrimidin-2-yl)octahydropyrrolo[3,4-c]pyrrole]
4	Cc1nc(N2CC3CN(C(=O)c4cccc(F)c4-c4ncccn4)CC3C2)nc(C)c1C (stereo not shown) [Example 239, (3-Fluoro-2-(pyrimidin-2-yl)phenyl)(5-(4,5,6-trimethylpyrimidin-2-yl)hexahydropyrrolo[3,4-c]pyrrol-2(1H)-yl)methanone]
13	O=C(c1cccc(F)c1-n1nccn1)N1CC2CN(c3ncc4cc(F)ccc4n3)CC2C1 (stereo not shown) [Example 242, (3-Fluoro-2-(2H-1,2,3-triazol-2-yl)phenyl)(5-(6-fluoroquinazolin-2-yl)hexahydropyrrolo[3,4-c]pyrrol-2(1H)-yl)methanone]
40	Cc1cc(C)nc(N2CC3CN(C(=O)c4cccc5cccc(-n6nccn6)c45)CC3C2)n1 (stereo not shown) [Example 328, [5-(4,6-Dimethyl-pyrimidin-2-yl)-hexahydro-pyrrolo[3,4-c]pyrrol-2-yl]-(8-[1,2,3]triazol-2-yl-naphthalen-1-yl)-methanone]
2	COc1ccc(C(=O)N2CC3CN(c4ncc(Cl)c(C)n4)CC3C2)c(-n2nccn2)c1 (stereo not shown) [Example 378, 2-(5-Chloro-4-methylpyrimidin-2-yl)-5-{[4-methoxy-2-(2H-1,2,3-triazol-2-yl)phenyl]carbonyl}octahydropyrrolo[3,4-c]pyrrole]
7	Cc1cc(C)nc(N2CC3CN(C(=O)c4cccc(F)c4I)CC3C2)n1 (stereo not shown) [Example 232, (5-(4,6-Dimethylpyrimidin-2-yl)hexahydropyrrolo[3,4-c]pyrrol-2(1H)-yl)(3-fluoro-2-iodophenyl)methanone]
5	CCc1c(C)nc(N2CC3CN(C(=O)c4ccccc4-c4ncn(C)n4)CC3C2)nc1C (stereo not shown) [Example 322, 2-(5-Ethyl-4,6-dimethylpyrimidin-2-yl)-5-{[2-(1-methyl-1H-1,2,4-triazol-3-yl)phenyl]carbonyl}octahydropyrrolo[3,4-c]pyrrole]
18	Cc1cc(C)nc(N2CC3CN(C(=O)c4cccnc4-c4ccn[nH]4)CC3C2)n1 (stereo not shown) [Example 237, (2-(1H-Pyrazol-5-yl)pyridin-3-yl)(5-(4,6-dimethylpyrimidin-2-yl)hexahydropyrrolo[3,4-c]pyrrol-2(1H)-yl)methanone]
2	Cc1cc(C)nc(N2CC3CN(C(=O)c4cccc(F)c4-c4ccn[nH]4)CC3C2)n1 (stereo not shown) [Example 284, 2-(4,6-Dimethylpyrimidin-2-yl)-5-{[3-fluoro-2-(1H-pyrazol-5-yl)phenyl]carbonyl}octahydropyrrolo[3,4-c]pyrrole]
25	Cc1cncc(N2CC3CN(C(=O)c4ccccc4-n4nccn4)CC3C2)n1 (stereo not shown) [Example 211, [5-(6-Methyl-pyrazin-2-yl)-hexahydro-pyrrolo[3,4-c]pyrrol-2-yl]-(2-[1,2,3]triazol-2-yl-phenyl)-methanone]
7	Cc1cccc(-c2c(F)cccc2C(=O)N2CC3CN(c4nc(C)cc(C)n4)CC3C2)n1 (stereo not shown) [Example 370, (5-(4,6-Dimethylpyrimidin-2-yl)hexahydropyrrolo[3,4-c]pyrrol-2(1H)-yl)(3-fluoro-2-(6-methylpyridin-2-yl)phenyl)methanone]
8	CCc1c(C)nc(N2CC3CN(C(=O)c4ncccc4-n4nccn4)CC3C2)nc1C (stereo not shown) [Example 385, 2-(5-Ethyl-4,6-dimethylpyrimidin-2-yl)-5-{[3-(2H-1,2,3-triazol-2-yl)pyridin-2-yl]carbonyl}octahydropyrrolo[3,4-c]pyrrole]
